Measurements as given in US11986471B2, “Compounds and methods of use” (Tango Therapeutics, Inc., priority 2018, dated 2024).

Assays:
PRMT5 [1] = target: T1, PRMT5 (Homo sapiens, UniProt O14744); assay: PRMT5 IC50 assay in the presence of SAM as cofactor; format: biochemical
T1 construct: purchased Viva (custom protein)
Summary of the method: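 Ki conversion: SAM arm, Ki=IC50/1.5; MTA arm, Ki=IC50/13.5. No-cofactor arm reported as IC50 only. Selectivity expressed as Ki(SAM)/Ki(MTA).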

PRMT5 [2] = target: T1, PRMT5; assay: PRMT5 IC50 assay with no cofactor; format: biochemical; conditions: read-out: No Co-factor IC50
Summary of the method: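 For the SAM-containing format, dividing IC50 by 1.5 yields Ki; for the MTA-containing format the divisor is 13.5. A third format without cofactor gives IC50 alone.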

PRMT5 [3] = target: T1, PRMT5; assay: PRMT5 IC50 assay in the presence of MTA as cofactor; format: biochemical; conditions: for IC50: PRMT5, MTA as cofactor; for SAM/MTA Ratio: ratio between Ki in the presence of SAM and Ki in the presence of MTA
Summary of the method: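 Three cofactor conditions tested for PRMT5 inhibition: none, MTA and SAM, each giving an IC50. For conversion to Ki, the MTA-condition IC50 is divided by 13.5 and the SAM-condition IC50 by 1.5, and the two Ki values are expressed as a SAM/MTA ratio.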

HAP1 MTAP-intact = assay: SDMA in-cell western assay, HAP1 MTAP-intact cell line; format: cell-based; conditions: Homo sapiens
Summary of the method: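 HAP1 isogenic pair: endogenous MTAP vs MTAP-null. Readout SDMA by in-cell western; IC50 per line. Ratio ≥3 fold = MTAP-selective.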

HAP1 MTAP-deleted = assay: SDMA in-cell western assay, HAP1 MTAP-deleted cell line; format: cell-based; conditions: for IC50: Homo sapiens, HAP1 MTAP-deleted cell line; for MTAP Intact/Deleted Ratio: IC50 ratio HAP1 MTAP-intact / HAP1 MTAP-deleted
Summary of the method: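 IC50 from SDMA in-cell western; HAP1 line lacking MTAP (null), paired isogenically with MTAP-intact HAP1 expressing endogenous MTAP.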

T1 sequence (O14744 whole entry): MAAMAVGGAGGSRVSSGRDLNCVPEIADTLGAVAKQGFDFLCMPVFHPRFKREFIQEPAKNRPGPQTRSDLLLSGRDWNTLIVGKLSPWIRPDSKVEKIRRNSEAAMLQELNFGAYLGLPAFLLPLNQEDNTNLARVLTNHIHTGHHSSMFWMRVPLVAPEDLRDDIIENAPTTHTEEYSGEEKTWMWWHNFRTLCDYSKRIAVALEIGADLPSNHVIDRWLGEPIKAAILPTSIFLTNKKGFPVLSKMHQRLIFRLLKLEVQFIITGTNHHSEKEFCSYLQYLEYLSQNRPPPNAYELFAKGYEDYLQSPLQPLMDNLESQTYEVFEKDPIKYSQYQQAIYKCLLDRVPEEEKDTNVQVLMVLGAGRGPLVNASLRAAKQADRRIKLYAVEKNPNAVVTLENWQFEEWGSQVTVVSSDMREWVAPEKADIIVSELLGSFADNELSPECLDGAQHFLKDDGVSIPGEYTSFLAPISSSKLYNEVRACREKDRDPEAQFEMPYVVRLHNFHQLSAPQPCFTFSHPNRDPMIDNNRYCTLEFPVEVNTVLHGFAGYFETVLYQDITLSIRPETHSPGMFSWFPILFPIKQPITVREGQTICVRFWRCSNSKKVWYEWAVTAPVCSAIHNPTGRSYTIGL
T1 sequence (Q9BQA1 whole entry partner): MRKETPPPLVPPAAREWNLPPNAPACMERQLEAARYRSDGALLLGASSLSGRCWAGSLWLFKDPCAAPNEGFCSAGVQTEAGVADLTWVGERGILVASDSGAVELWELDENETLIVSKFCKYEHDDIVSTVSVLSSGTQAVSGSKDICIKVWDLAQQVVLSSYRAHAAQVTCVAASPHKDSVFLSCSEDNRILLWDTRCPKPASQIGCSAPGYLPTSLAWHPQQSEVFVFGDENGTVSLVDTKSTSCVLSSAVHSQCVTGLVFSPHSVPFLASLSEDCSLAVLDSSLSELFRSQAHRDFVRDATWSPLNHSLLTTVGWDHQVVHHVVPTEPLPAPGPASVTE

| SMILES | IC50 (PRMT5 [1]) | IC50 (PRMT5 [2]) | IC50 (PRMT5 [3]) | IC50 (HAP1 MTAP-intact) | IC50 (HAP1 MTAP-deleted) | SAM/MTA Ratio (PRMT5 [3]) | MTAP Intact/Deleted Ratio (HAP1 MTAP-deleted) |
| --- | --- | --- | --- | --- | --- | --- | --- |
| CC(=O)N1CCC(Nc2cc(C(=O)NC[C@H](O)CN3CCc4cc(OCc5ocnc5C)ccc4C3)cc(N(C)C)n2)CC1 [Compound 629, (S)-2-((1-acetylpiperidin-4-yl)amino)-6-(dimethylamino)-N-(2-hydroxy-3-(6-((4-methyloxazol-5-yl)methoxy)-3,4-dihydroisoquinolin-2(1H)-yl)propyl)isonicotinamide] | 50 to 500 nM | 500 to 5000 nM | 50 to 500 nM | 1000 to 10000 nM | < 1000 nM | A (a Ki ratio greater than or equal to 10 fold between the Ki in the presence of SAM and the Ki in the presence of MTA) | A* (an IC50 ratio greater than or equal to 10 fold between the IC50 in the HAP1 MTAP-intact cell line and the HAP1 MTAP-deleted cell line) |
| CC(=O)N1CC[C@H](Nc2cc(C(=O)NC[C@H](O)CN3CCc4cc(OCc5ocnc5C)ccc4C3)ccn2)C[C@H]1C [Compound 644, 2-(((2R,4S)-1-acetyl-2-methylpiperidin-4-yl)amino)-N—((S)-2-hydroxy-3-(6-((4-methyloxazol-5-yl)methoxy)-3,4-dihydroisoquinolin-2(1H)-yl)propyl)isonicotinamide] | 50 to 500 nM | 500 to 5000 nM | < 50 nM | 1000 to 10000 nM | < 1000 nM | A (a Ki ratio greater than or equal to 10 fold between the Ki in the presence of SAM and the Ki in the presence of MTA) | A* (an IC50 ratio greater than or equal to 10 fold between the IC50 in the HAP1 MTAP-intact cell line and the HAP1 MTAP-deleted cell line) |
| CC(=O)N1[C@@H]2CC[C@H]1C[C@H](Nc1cc(C(=O)NC[C@H](O)CN3CCc4cc(OCc5ocnc5C)ccc4C3)ccn1)C2 [Compound 645, 2-(((1R,3r,5S)-8-acetyl-8-azabicyclo[3.2.1]octan-3-yl)amino)-N—((S)-2-hydroxy-3-(6-((4-methyloxazol-5-yl)methoxy)-3,4-dihydroisoquinolin-2(1H)-yl)propyl)isonicotinamide] | 50 to 500 nM | 500 to 5000 nM | 50 to 500 nM | ≥ 10000 nM | < 1000 nM | A (a Ki ratio greater than or equal to 10 fold between the Ki in the presence of SAM and the Ki in the presence of MTA) | A* (an IC50 ratio greater than or equal to 10 fold between the IC50 in the HAP1 MTAP-intact cell line and the HAP1 MTAP-deleted cell line) |
| CC(=O)N1CCC(Nc2cc(C(=O)NC[C@H](O)CN3CCc4cc(OCc5ocnc5C)ccc4C3)nc(N3CCCCC3)n2)CC1 [Compound 647] | 50 to 500 nM | 50 to 500 nM | < 50 nM | < 1000 nM | < 1000 nM | A (a Ki ratio greater than or equal to 10 fold between the Ki in the presence of SAM and the Ki in the presence of MTA) | B* (an IC50 ratio greater than or equal to 3 fold but lower than 10 fold between the IC50 in the HAP1 MTAP-intact cell line and the HAP1 MTAP-deleted cell line) |

Further lines, with some results ahead:

| IC50 (PRMT5 [1]) | IC50 (PRMT5 [2]) | IC50 (PRMT5 [3]) | IC50 (HAP1 MTAP-intact) | IC50 (HAP1 MTAP-deleted) | SMILES | SAM/MTA Ratio (PRMT5 [3]) | MTAP Intact/Deleted Ratio (HAP1 MTAP-deleted) |
| --- | --- | --- | --- | --- | --- | --- | --- |
| 50 to 500 nM | 50 to 500 nM | < 50 nM | 1000 to 10000 nM | 1000 to 10000 nM | CC(=O)N1CC(Nc2cc(C(=O)NC[C@H](O)CN3CCc4cc(OCc5ocnc5C)ccc4C3)cc(N3CCCCC3)n2)C1 [Compound 634] | A (a Ki ratio greater than or equal to 10 fold between the Ki in the presence of SAM and the Ki in the presence of MTA) | B* (an IC50 ratio greater than or equal to 3 fold but lower than 10 fold between the IC50 in the HAP1 MTAP-intact cell line and the HAP1 MTAP-deleted cell line) |
| 50 to 500 nM | ≥ 5000 nM | 50 to 500 nM | 1000 to 10000 nM | < 1000 nM | Cc1ncoc1COc1ccc2c(c1)CCN(C[C@@H](O)CNC(=O)c1cc(NC3CCC3)nc(N(C)C3CCC3)c1)C2 [Compound 635] | A (a Ki ratio greater than or equal to 10 fold between the Ki in the presence of SAM and the Ki in the presence of MTA) | A* (an IC50 ratio greater than or equal to 10 fold between the IC50 in the HAP1 MTAP-intact cell line and the HAP1 MTAP-deleted cell line) |
| 50 to 500 nM | 500 to 5000 nM | 50 to 500 nM | 1000 to 10000 nM | < 1000 nM | Cc1ncoc1COc1ccc2c(c1)CCN(C[C@@H](O)CNC(=O)c1cc(NC3CCC3)nc(NC3CCC3)c1)C2 [Compound 636, (S)-2,6-bis(cyclobutylamino)-N-(2-hydroxy-3-(6-((4-methyloxazol-5-yl)methoxy)-3N-dihydroisoquinolin-2(1H)-yl)propyl)isonicotinamide] | A (a Ki ratio greater than or equal to 10 fold between the Ki in the presence of SAM and the Ki in the presence of MTA) | B* (an IC50 ratio greater than or equal to 3 fold but lower than 10 fold between the IC50 in the HAP1 MTAP-intact cell line and the HAP1 MTAP-deleted cell line) |
| 50 to 500 nM | ≥ 5000 nM | 50 to 500 nM | 1000 to 10000 nM | 1000 to 10000 nM | CC(=O)N1CCC(Nc2cc(C(=O)NC[C@H](O)CN3CCc4cc(OCc5ocnc5C)ccc4C3)ccn2)C(C)C1 (stereo partly drawn) [Compound 637, 2-((1-acetyl-3-methylpiperidin-4-yl)amino)-N—((S)-2-hydroxy-3-(6-((4-methyloxazol-5-yl)methoxy)-3,4-dihydroisoquinolin-2(1H)-yl)propyl)isonicotinamide] | A (a Ki ratio greater than or equal to 10 fold between the Ki in the presence of SAM and the Ki in the presence of MTA) | B* (an IC50 ratio greater than or equal to 3 fold but lower than 10 fold between the IC50 in the HAP1 MTAP-intact cell line and the HAP1 MTAP-deleted cell line) |
